How the values were obtained:
Assay in all cases: KINOMEscan kinase binding assay
[1] = tested on: ABL1(E255K)-phosphorylated; details: at 1 μM
Protocol: (§1) Kinase binding assays were performed at Eurofins/DiscoveRx using the general KINOMEscan Protocol (Fabian, M. A. et al., “A small molecule-kinase interaction map for clinical kinase inhibitors,” Nat. Biotechnol. 2005, 23(3):329-36). For most assays, kinase-tagged T7 phage strains were prepared in an E. coli host derived from the BL21 strain. E. coli were grown to log-phase and infected with T7 phage and incubated with shaking at 32° C. until lysis. The lysates were centrifuged and filtered to remove cell debris. The remaining kinases were produced in HEK-293 cells and subsequently tagged with DNA for qPCR detection. Streptavidin-coated magnetic beads were treated with biotinylated small molecule ligands for 30 minutes at room temperature to generate affinity resins for kinase assays. The liganded beads were blocked with excess biotin and washed with blocking buffer (SeaBlock (Pierce), 1% BSA, 0.05% Tween 20, 1 mM DTT) to remove unbound ligand and to reduce nonspecific binding. Binding reactions were assembled by combining kinases, liganded affinity beads, and test compounds in 1× binding buffer (20% SeaBlock, 0.17×PBS, 0.05% Tween 20, 6 mM DTT). All reactions were performed in polystyrene 96-well plates in a final volume of 0.135 mL. The assay plates were incubated at room temperature with shaking for 1 hour and the affinity beads were washed with wash buffer (1×PBS, 0.05% Tween 20). The beads were then re-suspended in elution buffer (1×PBS, 0.05% Tween 20, 0.5 μM non-biotinylated affinity ligand) and incubated at room temperature with shaking for 30 minutes. The kinase concentration in the eluates was measured by qPCR. Results for compounds tested in this assay at a given concentration are reported as “% Ctrl”, where lower numbers indicate stronger binding in the matrix. % Ctrl was calculated as (test compound signal-positive control signal)/(negative control signal-positive control signal)×100. Dissociation constants (Kds) for test compound-kinase interactions were calculated by measuring the amount of kinase captured on the solid support as a function of the test compound concentration.

[2] = tested on: ABL1(F317L)-phosphorylated; details: at 1 μM
Protocol: as §1

[3] = tested on: ABL1(M351T)-phosphorylated; details: at 1 μM
Protocol: as §1

[4] = tested on: ABL1(T315I)-nonphosphorylated; details: at 1 μM
Protocol: as §1

[5] = tested on: ABL1(T315I)-phosphorylated; details: at 1 μM
Protocol: as §1

ABL2 = details: at 1 μM
Protocol: as §1

BLK = details: at 1 μM
Protocol: as §1

BTK = details: at 1 μM
Protocol: as §1

CSF1R-autoinhibited = details: at 1 μM
Protocol: as §1

DDR1 = details: at 1 μM
Protocol: as §1

EGFR(G719S) = details: at 1 μM
Protocol: as §1

EGFR(L861Q) = details: at 1 μM
Protocol: as §1

EGFR(S752-1759del) = details: at 1 μM
Protocol: as §1

EGFR(T790M) = details: at 1 μM
Protocol: as §1

EGFR = details: at 1 μM
Protocol: as §1

EPHA7 = details: at 1 μM
Protocol: as §1

EPHB1 = details: at 1 μM
Protocol: as §1

EPHB2 = details: at 1 μM
Protocol: as §1

ERBB3 = details: at 1 μM
Protocol: as §1

ERBB4 = details: at 1 μM
Protocol: as §1

FAK = details: at 1 μM
Protocol: as §1

FGFR1 = details: at 1 μM
Protocol: as §1

FGFR4 = details: at 1 μM
Protocol: as §1

FLT1 = details: at 1 μM
Protocol: as §1

FLT3(D835H) = details: at 1 μM
Protocol: as §1

FLT3(N841I) = details: at 1 μM
Protocol: as §1

FLT3(R834Q) = details: at 1 μM
Protocol: as §1

FRK = details: at 1 μM
Protocol: as §1

IGF1R = details: at 1 μM
Protocol: as §1

[6] = tested on: JAK1(JH1domain-catalytic)
Protocol: as §1

KIT(A829P) = details: at 1 μM
Protocol: as §1

KIT(D816V) = details: at 1 μM
Protocol: as §1

MET(Y1235D) = details: at 1 μM
Protocol: as §1

MST1R = details: at 1 μM
Protocol: as §1

PYK2 = details: at 1 μM
Protocol: as §1

RET(V804L) = details: at 1 μM
Protocol: as §1

SRC = details: at 1 μM
Protocol: as §1

TIE1 = details: at 1 μM
Protocol: as §1

TNK2 = details: at 1 μM
Protocol: as §1

VEGFR2 = details: at 1 μM
Protocol: as §1

ZAP70 = details: at 1 μM
Protocol: as §1

Cc1cc2c([nH]1)/C=C1\C(=O)Nc3c(Cl)cc(cc31)-c1cn(C)nc1COC[C@@H](C)N(C)C2=O [Cpd. 5, [3a(4)Z,10R]-20-chloro-6,9,10,15-tetramethyl-10,11,13,15-tetrahydro-2H-1,17-(ethanediylidene)pyrazolo[4,3-m]dipyrrolo[3,2-f:3′,4′-i][1,4]oxazacyclopentadecine-3,8(5H,9H)-dione]
% Ctrl [1]: 79% | % Ctrl [2]: 83% | % Ctrl [3]: 94% | % Ctrl [4]: 100% | % Ctrl [5]: 70% | % Ctrl (ABL2): 96% | % Ctrl (BLK): 87% | % Ctrl (BTK): 68% | % Ctrl (CSF1R-autoinhibited): 75% | % Ctrl (DDR1): 93% | % Ctrl (EGFR(G719S)): 98% | % Ctrl (EGFR(L861Q)): 94% | % Ctrl (EGFR(S752-1759del)): 100% | % Ctrl (EGFR(T790M)): 80% | % Ctrl (EGFR): 96% | % Ctrl (EPHA7): 98% | % Ctrl (EPHB1): 92% | % Ctrl (EPHB2): 90% | % Ctrl (ERBB3): 71% | % Ctrl (ERBB4): 97% | % Ctrl (FAK): 96% | % Ctrl (FGFR1): 84% | % Ctrl (FGFR4): 88% | % Ctrl (FLT1): 93% | % Ctrl (FLT3(D835H)): 79% | % Ctrl (FLT3(N841I)): 86% | % Ctrl (FLT3(R834Q)): 98% | % Ctrl (FRK): 80% | % Ctrl (IGF1R): 98% | % Ctrl ([6]; JAK1(JH1domain-catalytic), at 1 μM): 100% | Kd ([6]; read-out: JAK1(JH1 domain-catalytic) Kd): > 10 µM | % Ctrl (KIT(A829P)): 84% | % Ctrl (KIT(D816V)): 100% | % Ctrl (MET(Y1235D)): 100% | % Ctrl (MST1R): 95% | % Ctrl (PYK2): 83% | % Ctrl (RET(V804L)): 84% | % Ctrl (SRC): 100% | % Ctrl (TIE1): 91% | % Ctrl (TNK2): 87% | % Ctrl (VEGFR2): 92% | % Ctrl (ZAP70): 63%

Source: patent US20250074920A1, “MACROCYCLIC COMPOUNDS AND USE AS KINASE INHIBITORS” (BLOSSOMHILL THERAPEUTICS, INC., priority 2022, published 2025)
